Measurements reported in PMC6444227, “Pharmacological Evaluation of Secondary Metabolites and Their Simultaneous Determination in the Arabian Medicinal Plant Plicosepalus curviflorus Using HPTLC Validated Method” (Journal of Analytical Methods in Chemistry, 2019).
≈ marks a conversion by molar mass, not a printed value. One block for each compound: values may come before it.

How the values were obtained:
[1] = test system: NF-κB; test: NF-κB luciferase reporter gene assay in PMA-treated SW1353 cells; format: cell-based; details: Homo sapiens; SW1353, PMA 70 ng/mL 8 h; NA = no activity up to 100 µg/mL; read-out: NF-kB inhibition (IC50)
Description: According to the method described earlier, the 96-well plates with density of 1.25 × 10^5 cells per well were seeded with human chondrosarcoma cells (SW1353) transfected with NF-κB luciferase plasmid construct. After incubation for 24 h, cells were treated with the test samples for half an hour followed by PMA (70 ng/mL) for 8 h. Luciferase assay kit (Promega, Madison, WI, USA) was used for determination of luciferase activity, and parthenolide was used as the positive control in this test.

[2] = test system: iNOS; test: iNOS inhibition, nitrite level in LPS-treated macrophages (Griess); format: cell-based, mouse; details: RAW264.7, LPS 5 µg/mL, 24 h, NA = no activity up to 100 µg/mL; for IC50: Mus musculus
Description: Mouse macrophage (RAW264.7) cells were seeded in the wells of 96-well plates followed by 24 hrs for confluency according to the method described previously. The test samples were treated with LPS (5 μg/mL) and followed by 24-hour incubation as well. The nitrite level in cell supernatant was measured by Griess reagent. The dose response curves gave indication for IC50 values. Parthenolide was used as positive control.

[3] = test system: SK-MEL; test: Cytotoxicity assay (Borenfreund method, 48 h); format: cell-based; details: Homo sapiens, NA = no cytotoxic activity upto 100 µg/mL, read-out: Cancer cells IC50, SK-MEL
Description: (§1) Four human cancer cell lines (SK-OV-3, SK-MEL, BT-549 and KB) and two noncancerous kidney cell lines (VERO and LLC-PK1) were measured in the in vitro cytotoxic study. Test samples were added on the cell lines with variable concentrations, followed by 48 h incubation. According to the Borenfreund method, the cell viability was determined at the end of incubation, using doxorubicin as a positive control.

[4] = test system: BT-549; test: Cytotoxicity assay (Borenfreund method, 48 h); format: cell-based; details: Homo sapiens, NA = no cytotoxic activity upto 100 µg/mL, read-out: Cancer cells IC50, BT-549
Description: as §1

[5] = test system: KB; test: Cytotoxicity assay (Borenfreund method, 48 h); format: cell-based; details: Homo sapiens, NA = no cytotoxic activity upto 100 µg/mL, read-out: Cancer cells IC50, KB
Description: as §1

[6] = test system: LLC-PK11; test: Cytotoxicity assay (Borenfreund method, 48 h); format: cell-based; details: NA = no cytotoxic activity upto 100 µg/mL, read-out: Noncancer cells IC50, LLC-PK11
Description: as §1

[7] = test system: VERO; test: Cytotoxicity assay (Borenfreund method, 48 h); format: cell-based; details: Chlorocebus sabaeus, NA = no cytotoxic activity upto 100 µg/mL, read-out: Noncancer cells IC50, VERO
Description: as §1

[8] = test system: SK-OV-3; test: Cytotoxicity assay (Borenfreund method, 48 h); format: cell-based; details: Homo sapiens, NA = no cytotoxic activity upto 100 µg/mL, read-out: Cancer cells IC50, SK-OV-3
Description: as §1

[9] = test system: Escherichia fergusonii (CU928158.2); test: Antibacterial well diffusion; format: cell-based; details: 10 µL per well, mean ± SD
Text: (§2) (CP017183.1), Escherichia fergusonii (CU928158.2), and Pseudomonas aeruginosa (NR-117678.1) and Gram-positive Staphylococcus aureus (CP011526.1) and Bacillus licheniformis (KX785171.1) using well diffusion and broth microdilution techniques as described by Berghe and […] [16]. The bacterial strains were suspended in a nutrient broth for 24 hr, and the suspension then spread on Mueller-Hinton agar. […] Amikacin was used as the positive control.

[10] = test system: Pseudomonas aeruginosa (ATCC 27853); test: Antibacterial well diffusion; format: cell-based; details: 10 µL per well, mean ± SD
Text: as §2

[11] = test system: Klebsiella pneumonia (ATCC 700603); test: Antibacterial well diffusion; format: cell-based; details: 10 µL per well, mean ± SD
Text: as §2

[12] = test system: Staphylococcus aureus; test: Antibacterial well diffusion; format: cell-based; details: 10 µL per well, mean ± SD
Text: as §2

[13] = test system: Escherichia fergusonii (CU928158.2); test: Antibacterial broth microdilution (MIC); format: cell-based; details: read-out: MIC, E. fergusonii
Text: as §2

[14] = test system: Pseudomonas aeruginosa (ATCC 27853); test: Antibacterial broth microdilution (MIC); format: cell-based; details: ATCC27853, read-out: MIC, P. aeruginosa
Text: as §2

[15] = test system: Klebsiella pneumonia (ATCC 700603); test: Antibacterial broth microdilution (MIC); format: cell-based; details: Klebsiella pneumoniae, ATCC700603, read-out: MIC, K. pneumonia
Text: as §2

[16] = test system: Staphylococcus aureus; test: Antibacterial broth microdilution (MIC); format: cell-based; details: read-out: MIC, S. aureus
Text: as §2

[17] = test system: Bacillus cereus (ATCC 14579); test: Antibacterial well diffusion; format: cell-based; details: 10 µL per well, mean ± SD
[18] = test system: Bacillus cereus (ATCC 14579); test: Antibacterial broth microdilution (MIC); format: cell-based; details: ATCC14579, read-out: MIC, B. cereus
[19] = test system: four cancerous cell lines as well as the two normal cell lines; test: Cytotoxicity, whole panel; format: cell-based; details: all cell lines
Description: as §1

[20] = test system: HepG2 cells; test: Cellular antioxidant assay (decrease in oxidative stress, ABAP); format: cell-based, human
Description: Human hepatoma cell line (HepG2) was the cell line of choice in this study according to the previously described method. At a density of 60,000 cells/well, the HepG2 cells were seeded in a 96-well plate and incubated for 24 h for confluency. PBS was used for washing the cells, followed by samples treatment. The SpectraMax plate reader was used for reading the plates after addition of 600 μM of ABAP. The area under the curve (AUC) of fluorescence units and time were two parameters used for indication of the percent decrease in oxidative stress. Percent decrease in oxidative stress = 100 − ((AUC sample/AUC control) × 100). Quercetin was used as a positive control.

[21] = biological target: T1, PPARα (Homo sapiens, UniProt Q07869); test: PPARα reporter gene assay (luciferase fold induction); format: cell-based; details: dual activation
T1 construct: expressed in transfected cells
T1 sequence (Q07869 1-468): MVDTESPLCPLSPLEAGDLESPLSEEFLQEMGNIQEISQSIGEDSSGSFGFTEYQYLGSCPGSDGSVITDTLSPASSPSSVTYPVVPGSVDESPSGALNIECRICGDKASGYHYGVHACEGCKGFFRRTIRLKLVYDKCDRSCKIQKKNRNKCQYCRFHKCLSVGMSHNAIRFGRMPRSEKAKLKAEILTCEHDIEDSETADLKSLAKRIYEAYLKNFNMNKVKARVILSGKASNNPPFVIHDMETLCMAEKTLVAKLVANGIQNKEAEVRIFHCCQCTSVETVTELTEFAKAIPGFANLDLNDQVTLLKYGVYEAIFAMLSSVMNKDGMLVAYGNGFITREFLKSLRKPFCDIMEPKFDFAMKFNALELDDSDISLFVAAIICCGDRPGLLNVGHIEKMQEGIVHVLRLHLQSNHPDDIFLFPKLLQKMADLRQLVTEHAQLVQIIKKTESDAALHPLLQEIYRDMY
Description: (§3) A reporter gene assay was carried out as described previously. Briefly, upon confluency, the different concentrations of the test samples were exposed to transfected cells for 24 hrs. Vehicle control was taken into consideration when the fold induction in luciferase activity was calculated. Both rosiglitazone and ciprofibrate were used as control drugs for PPARα and PPARγ, respectively.
(§4) Fold induction in the PPAR activity was detected in response to the methanol fraction and pure compounds according to untreated controls. A fold induction of 1.5 means a 50% increase in PPAR activity. […] Several studies have been carried out with the aim of exploring the potential of selective PPARγ modulators. The dual activator effect of P2 is in agreement with previous literature.

[22] = biological target: T2, PPARγ (Homo sapiens, UniProt P37231); test: PPARγ reporter gene assay (luciferase fold induction); format: cell-based
T2 construct: expressed in transfected cells
T2 sequence (P37231 1-505): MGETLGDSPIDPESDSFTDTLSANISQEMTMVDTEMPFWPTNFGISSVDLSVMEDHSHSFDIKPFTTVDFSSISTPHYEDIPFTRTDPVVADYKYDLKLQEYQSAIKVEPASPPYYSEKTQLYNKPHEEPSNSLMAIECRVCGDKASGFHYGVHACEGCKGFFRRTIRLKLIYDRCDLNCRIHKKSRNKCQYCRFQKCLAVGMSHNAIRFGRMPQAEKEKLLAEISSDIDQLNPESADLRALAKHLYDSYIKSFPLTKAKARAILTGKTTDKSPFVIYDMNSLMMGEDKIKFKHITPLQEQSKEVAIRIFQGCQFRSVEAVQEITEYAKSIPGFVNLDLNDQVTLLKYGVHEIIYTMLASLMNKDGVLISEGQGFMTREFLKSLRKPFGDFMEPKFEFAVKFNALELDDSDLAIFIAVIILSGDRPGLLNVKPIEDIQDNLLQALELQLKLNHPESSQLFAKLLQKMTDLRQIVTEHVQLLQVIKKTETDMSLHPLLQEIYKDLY
Description: as §3, §4

- IC50 [1]: 0.5 ± 0.21 µg/mL (≈ 2.01 µM)
- IC50 [2]: 0.35 ± 0.22 µg/mL (≈ 1.41 µM)
Compound: C=C1C(=O)O[C@H]2[C@H]1CC/C(C)=C/CC[C@@]1(C)O[C@@H]21 [Parthenolide, reference compound]

Compound: COc1cccc2c1C(=O)c1c(O)c3c(c(O)c1C2=O)C[C@@](O)(C(=O)CO)C[C@@H]3O[C@H]1C[C@H](N)[C@H](O)[C@H](C)O1 [Doxorubicin]
- IC50 [3]: 1.23 µg/mL (≈ 2.26 µM)
- IC50 [4]: 1.93 µg/mL (≈ 3.55 µM)
- IC50 [5]: 1.85 µg/mL (≈ 3.4 µM)
- IC50 [6]: 0.85 µg/mL (≈ 1.56 µM)
- IC50 [7]: > 5 µg/mL
- IC50 [8]: 0.8 µg/mL (≈ 1.47 µM)

- MIC [13]: 9.3 µg/mL (≈ 30.8 µM)
- MIC [14]: 6.6 µg/mL (≈ 21.8 µM)
- MIC [15]: 6.2 µg/mL (≈ 20.5 µM)
- MIC [16]: 8.3 µg/mL (≈ 27.5 µM)
- IC50 ([2]; RAW264.7, 24 h): 25 µg/mL (≈ 82.7 µM)
- iNOS inhibition (IC50) [2]: 48 µg/mL
- MIC [18]: 8.4 µg/mL (≈ 27.8 µM)
- PPAR alpha agonistic activity, fold induction [21]: no PPAR agonistic activity
- PPAR gamma agonistic activity, fold induction ([22]; dual activation): no PPAR agonistic activity
Compound: O=c1c(O)c(-c2ccc(O)c(O)c2)oc2cc(O)cc(O)c12 [Compound P1, quercetin]
- ZOI diameter, E. fergusonii [9]: 16.3 ± 0.57 mm
- ZOI diameter, P. aeruginosa [10]: 21 ± 1 mm
- ZOI diameter, K. pneumonia [11]: 21.3 ± 1.15 mm
- ZOI diameter, S. aureus [12]: 18 ± 1 mm
- ZOI diameter, B. cereus [17]: 19.3 ± 1.15 mm
- Cytotoxicity (in words) [19]: not cytotoxic
- % decrease in oxidative stress ([20]; at 250 µg/mL for pure compounds): 52%
- % decrease in oxidative stress ([20]; positive control at 50 µM): 75%
- IC50 [6]: 55 µg/mL (≈ 182 µM)

- fold induction at 10 µM ([22]; control drug at 10 µM, read-out: Fold induction PPAR gamma): 3.7
Compound: CN(CCOc1ccc(CC2SC(=O)NC2=O)cc1)c1ccccn1 (stereo not drawn) [Rosiglitazone, reference compound]
